The source of these data is article PMC10985144, “Design, synthesis, and evaluation of the novel ozagrel–paeonol codrug with antiplatelet aggregation activities as a potent anti-stroke therapeutic agent” (Frontiers in Pharmacology, 2024).

In data set [1] the test system is AA-induced platelet aggregation. The data set is described as follows: AA-induced platelet aggregation (antiplatelet aggregation activity). Type of data set: cell-based. To be noted: platelet aggregation induced by AA (1 μM); mean ± SD, n = 5. The procedure: The antiplatelet aggregation activity of the target compounds was evaluated against ADP- and AA-induced platelet aggregation. In other words, different concentrations of the target compound solution and POC ([Zhang J. et al., 2021]) (10 μL) were added to the plasma at 37°C for 5 min. […] Variations in absorbance were monitored for 5 min in order to measure platelet aggregation ([Daron et al., 2022]). The platelet aggregation inhibition rate (AIR) was calculated according to the following formula: AIR = (rate of aggregation (control)−rate of aggregation (compounds))/rate of aggregation (control) × 100%

The test system of data set [2] is ADP-induced platelet aggregation. Description: ADP-induced platelet aggregation (antiplatelet aggregation activity). Type of data set: cell-based. To be noted: platelet aggregation induced by ADP (10 μM); mean ± SD, n = 5. The method, then:
The antiplatelet aggregation activity of the target compounds was evaluated against ADP- and AA-induced platelet aggregation. In other words, different concentrations of the target compound solution and POC ([Zhang J. et al., 2021]) (10 μL) were added to the plasma at 37°C for 5 min. Then, platelets were stimulated with ADP (10 μM, 30 μL) or AA (1 mM, 30 μL). Variations in absorbance were monitored for 5 min in order to measure platelet aggregation ([Daron et al., 2022]). The platelet aggregation inhibition rate (AIR) was calculated according to the following formula: AIR = (rate of aggregation (control)−rate of aggregation (compounds))/rate of aggregation (control) × 100%

The nature of data set [3]: Pharmacokinetic study after single i.g. or i.v. administration to rats. The format is in vivo. The settings on record: for AUC(0-t) / AUC(0-∞) / half-life / MRT last: single 6.4 mg/kg, mean ± SD; for AUC(0-t) / AUC(0-∞) / half-life: n = 6; for MRT last: n = 6, read-out: MRT (0-t) (converted). The method, then:
Six rats were given compound 8b (6.4 mg/kg) ([Zhang J. et al., 2021]) by intravenous injection (i.v.) and intragastric administration (i.g.), respectively. The animal experiment protocol was performed according to the guidelines for animal experiments and supervised by the Experimental Animal Ethics Committee of Anhui University of Chinese Medicine (AHUCM-rats-2019001). Then, approximately 1.0 mL of blood was taken from the orbital venous plexus of the rats and placed into an EP-containing heparin at predetermined time points of 3, 5, 10, 20, 30, 45, 60, 120, and 240 min after dosing. The blood sample was centrifuged for 15 min at 3,500 rpm to obtain plasma. For plasma preparation, 180 μL of plasma was mixed with 20 μL of glibenclamide as an internal standard and 900 μL of acetonitrile. The mixture was then centrifuged at 12,000 rpm for 10 min. After centrifugation, 800 μL of the supernatant was dried using a vacuum freeze dryer. The dried sample was then reconstituted with 200 μL of acetonitrile for LC/MS analysis. The analytical conditions for the plasma samples are as follows: a Hypersil GOLD C8 HPLC Column (2.1 mm × 100 mm, 1.9μm; Thermo Fisher Scientific, United States) was used for chromatographic separation. The column temperature was maintained at 30°C, and the sample chamber temperature was maintained at 4°C. A gradient elution with a flow rate of 0.2 mL/min (phase A: 0.1% formic acid, phase B: methanol) was carried out from 45% B to 80% within 2.5 min, then from […] to 90% within 1 min, and maintained at 90% for 1 min; subsequently, it was decreased from 90% to 45% in 30 s and maintained for 1 min. Multiple-reaction monitoring (MRM) was quoted as the acquisition mode of mass spectrometry in a positive ionization mode. The mass spectrometry detector was equipped with an electrospray ionization (ESI) source. The optimal MS parameters were as follows: the ion source temperature was set at 400°C, the vaporization temperature was set at 500°C, the electrospray voltage was set to 5500 V, and the capillary voltage was set to 3600 V. The ion pair of 8b is m/z 517.0 and 281.4, and the declustering voltage is 120 eV; the collision energy is 40 eV. Similarly, the ion pair of glibenclamide is m/z 494.1 and 169.0, the declustering voltage is 65 eV, and the collision energy is 50 eV.

Data set [4] has as its system OGD/R PC12 cells. The data set is described as follows: Protective effect on OGD/R PC12 cells (oxygen-glucose deprivation), CCK-8. The format is cell-based. The settings on record: Rattus norvegicus, mean ± SD, n = 5, read-out: Cell viability (%). The procedure:
(§1) For the cell culture conditions, rat pheochromocytoma PC12 cells (ATCC, Manassas, VA, United States) were cultured in RPMI 1640 culture medium with 1% penicillin and streptomycin and 10% fetal bovine serum (FBS) (Gibco, Waltham, MA, United States) at 37°C with 5% CO2.
For oxygen-glucose deprivation of PC12 cell activity, the procedure was conducted as follows ([Wei et al., 2022]): the cells were cultured in a 96-well plate for 24 h. Then, the culture medium was replaced with oxygen–glucose-free RPMI 1640 and placed in an incubator with 5% CO2 and 95% N2 for 2 h. Once the oxygen-free process was completed, the culture medium was changed back to RPMI 1640 and maintained at 37°C with 5% CO2 for an additional 24 h. Cell viability was then assessed using the CCK-8 assay.

Data set [5] deals with PC12 cells. The data set is described as follows: Viability of PC12 cells, CCK-8 assay. The format is cell-based, rat. The settings on record: 24 h. The method, then: as §1
Cell viability was assessed using a CCK-8 assay. The PC12 cells were seeded in a 96-well plate at a density of 1 × 10^5 cells per well. After incubation for 24 h, the cells were treated with various concentrations of the compound. After 24 h of re-incubation, the cell viability was evaluated using a 10% CCK-8 solution. The absorbance value was determined at 450 nm.

Details of data set [6]: method as in Zhang J. et al., 2021. The settings on record: found in the authors' previous study; ref Zhang J. et al., 2021; cited from earlier work.

“And” between values parts separate entries of the source, which are not always exact repeats. Equal values may be shown once. Read-outs that look alike come from different tables or passages of the source. Some results are limits rather than exact numbers.

As to `O=C(O)/C=C/c1ccc(Cn2ccnc2)cc1` [Ozagrel, (E)-sodium 4-(1-imidazolomethyl) cinnamate], the results for the IC50 in data set [1] and in data set [2] were 52.5 ± 3.29 µM and more than 1000 µM, respectively.
As for `COc1ccc(C(C)=O)c(OCCCN2CCN(C(=O)C=Cc3ccc(Cn4ccnc4)cc3)CC2)c1` [PNC2], the results for the concentration for half-maximal inhibition (IC50) in data set [1] and in data set [2] were 462 ± 28.7 µM and more than 1000 µM, respectively.
As for `COc1ccc(C(C)=O)c(OCCCCN2CCN(C(=O)C=Cc3ccc(Cn4ccnc4)cc3)CC2)c1` [PNC3], in data set [3] (i.g.), the “time remained detectable in the blood” value is “up to 8 h”, the area under the curve AUC(0-t) was found to be 6148.338 ± 2222.737 µg·min/L and the “AUC(0-∞)” value is listed as 8346.219 ± 3,719.156 μg/L*min. Moreover, in data set [3] (i.g. longer than i.v.), the “MRT i.g. relative to i.v.” value turned out to be 2.11 times and the “t1/2 i.g. relative to i.v.” value worked out at 2.33 times. For the same molecule, in data set [3] (i.v.), the “time within which peak concentration was visible” value is not above 6 h, the “AUC(0-t)” value was 18,552.773 ± 7438.264 μg/L*min and the “AUC(0-∞)” value is on record as 19,250.669 ± 7673.11 μg/L*min. In addition, in data set [3] (rat, plasma, iv), the half-life stood at 2.08 ± 0.295 h and the MRT last is 2.5 h. The Tmax in data set [3] (rat, plasma, po, 6.4 mg/kg, i.g., read-out: time of peak concentration in the blood) is 1 h. In addition, in data set [3] (rat, plasma, po, i.g.), the half-life was determined as 4.85 ± 1.74 h and the MRT last was 5.28 h. For the same molecule, in data set [3] (ratio of AUC(0-t) i.g. vs i.v., 6.4 mg/kg), the “AUC by i.g. relative to i.v.” value is 33.3% and 33.1%. In addition, inhibition in data set [1] was half-maximal at 74.7 ± 4.86 µM (IC50). Further, in data set [4] (PC-12, 0.02 μM), the viability at 0.02 µM was 50.5 ± 2.95%. The viability at 0.04 µM in data set [4] (PC-12, 0.04 μM) was 54.2 ± 2.68%. Further, in data set [4] (PC-12, 0.08 μM), the viability at 0.08 µM came out at 62.3 ± 3.14%. Also, in data set [5] (0–0.16 μM), the “impact on cell viability” value is on record as “no impact on cell viability”. Further, in data set [5] (0.08 μM), the cell survival rate is recorded as 97.52%. Further, the cell survival rate in data set [5] (concentration exceeded 0.16 μM) was 94.03%. The molecule also gave an IC50 in data set [2] of 485 ± 31.1 µM.
Regarding `COc1ccc(C(C)=O)c(OCCCCCN2CCN(C(=O)C=Cc3ccc(Cn4ccnc4)cc3)CC2)c1` [PNC4], the IC50 in data set [1] is 692 ± 45.7 µM; in data set [2], more than 1000 µM.
Consider `COc1ccc(C(C)=O)c(OCCCNC(=O)C=Cc2ccc(Cn3ccnc3)cc2)c1` [PNC5, 3-(4-((1H-imidazol-1-yl)methyl)phenyl)-N-(3-(2-acetyl-5-metho-xyphenoxy)propyl)acrylamide], for which the IC50 is 234 ± 16.6 µM in data set [1] and more than 1000 µM in data set [2].
Take `COc1ccc(C(C)=O)c(OC(=O)C=Cc2ccc(Cn3ccnc3)cc2)c1` [POC, reference compound]: the IC50 in data set [1] stood at 349 ± 16 µM; in data set [2], 842 ± 53.3 µM. The stability result in data set [6] is “unstable”.
